# In article PMC6446940 (ChemMedChem, 2018):
# Read-outs that look alike come from different tables or passages of the source.
# How the values were obtained:
# [1] = test system: control pseudovirus VSV-G; assay: microbe, parasite or virus in culture; type: cell-based; settings: Pseudovirus, U87/CD4/CCR5
# Cytotoxicity = type: cell-based, human; settings: human, freshly isolated and stimulated uninfected PBMC
# [2] = molecular target: HIV-1 Reverse Transcriptase (RT) (Human immunodeficiency virus type 1 group M subtype B, UniProt P04585); assay: biochemical; type: biochemical
# [3] = test system: HIV-1 Env pseudovirus Q259ENV.W6; assay: Single-cycle assay TZM-bl, Env pseudovirus panel; settings: TZM-bl
# [4] = test system: HIV-1 Env pseudovirus KNH1144; assay: Single-cycle assay TZM-bl, Env pseudovirus panel
# [5] = test system: HIV-1 Env pseudovirus QA790.204I.ENV.A4; assay: Single-cycle assay TZM-bl, Env pseudovirus panel; settings: TZM-bl
# [6] = test system: HIV-1 Env pseudovirus QA790.204I.ENV.C8; assay: Single-cycle assay TZM-bl, Env pseudovirus panel; settings: TZM-bl
# [7] = test system: HIV-1 Env pseudovirus QA790.204I.ENV.E2; assay: Single-cycle assay TZM-bl, Env pseudovirus panel; settings: TZM-bl
# [8] = test system: HIV-1 Env pseudovirus CRF02_AG, clone 251; assay: Single-cycle assay TZM-bl, Env pseudovirus panel; settings: TZM-bl
# [9] = test system: HIV-1 Env pseudovirus CRF02_AG, clone 253; assay: Single-cycle assay TZM-bl, Env pseudovirus panel
# [10] = test system: HIV-1 Env pseudovirus CRF02_AG, clone 33; assay: Single-cycle assay TZM-bl, Env pseudovirus panel; settings: TZM-bl
# [11] = test system: HIV-1 Env pseudovirus QH0692, clone 42; assay: Single-cycle assay TZM-bl, Env pseudovirus panel; settings: TZM-bl
# [12] = test system: HIV-1 Env pseudovirus PVO, clone 4; assay: Single-cycle assay TZM-bl, Env pseudovirus panel; settings: TZM-bl
# [13] = test system: HIV-1 Env pseudovirus TRO, clone 11; assay: Single-cycle assay TZM-bl, Env pseudovirus panel; settings: TZM-bl
# [14] = test system: HIV-1 Env pseudovirus REJO4541, clone 67; assay: Single-cycle assay TZM-bl, Env pseudovirus panel
# [15] = test system: HIV-1 Env pseudovirus RHPA4259, clone 7; assay: Single-cycle assay TZM-bl, Env pseudovirus panel; settings: TZM-bl
# [16] = test system: HIV-1 Env pseudovirus 1054.TC4.1499; assay: Single-cycle assay TZM-bl, Env pseudovirus panel; settings: TZM-bl
# [17] = test system: HIV-1 Env pseudovirus WEAUd15.410.5017; assay: Single-cycle assay TZM-bl, Env pseudovirus panel; settings: TZM-bl
# [18] = test system: HIV-1 Env pseudovirus B41; assay: Single-cycle assay TZM-bl, Env pseudovirus panel; settings: TZM-bl
# [19] = test system: HIV-1 Env pseudovirus Du422, clone 1; assay: Single-cycle assay TZM-bl, Env pseudovirus panel; settings: TZM-bl
# [20] = test system: HIV-1 Env pseudovirus ZM109F.PB4; assay: Single-cycle assay TZM-bl, Env pseudovirus panel; settings: TZM-bl
# [21] = test system: HIV-1 Env pseudovirus HIV-00836-2, clone 5; assay: Single-cycle assay TZM-bl, Env pseudovirus panel; settings: TZM-bl
# [22] = test system: HIV-1 Env pseudovirus HIV-16936-2, clone 21; assay: Single-cycle assay TZM-bl, Env pseudovirus panel; settings: TZM-bl
# [23] = test system: HIV-1 Env pseudovirus HIV-25711-2, clone 4; assay: Single-cycle assay TZM-bl, Env pseudovirus panel; settings: TZM-bl
# [24] = test system: HIV-1 Env pseudovirus QA013.70I.ENV.H1; assay: Single-cycle assay TZM-bl, Env pseudovirus panel; settings: TZM-bl
# [25] = test system: HIV-1 Env pseudovirus QD435.100M.ENV.B5; assay: Single-cycle assay TZM-bl, Env pseudovirus panel; settings: TZM-bl
# [26] = test system: HIV-1 Env pseudovirus QD435.100M.ENV.E1; assay: Single-cycle assay TZM-bl, Env pseudovirus panel
# [27] = test system: HIV-1 Env pseudovirus BG505.W6M.ENV.C2; assay: Single-cycle assay, Paired Infant and Maternal Env clones
# [28] = test system: HIV-1 Env pseudovirus MI206.W0M.ENV.D1; assay: as above
# [29] = test system: HIV-1 Env pseudovirus MJ613.W0M.ENV.A2; assay: as above
# [30] = test system: HIV-1 Env pseudovirus BL274.W6M.ENV.A3; assay: as above
# [31] = test system: HIV-1 Env pseudovirus ML274.W0M.ENV.B1; assay: as above
# [32] = test system: HIV-1 Env pseudovirus BK184.W6M.ENV.D2; assay: as above
# [33] = test system: HIV-1 Env pseudovirus MK184.W0M.ENV.E4; assay: as above
# [34] = test system: HIV-1 panel of Paired Infant (B) and Maternal (M) Env Molecular Clones; assay: Single-cycle assay, means over Paired Infant and Maternal Env clones
structure (smiles),measurement,setting,value
"Cc1nc(C(CN)NC(=O)c2ccc(-c3ccc4c(c3)OCO4)[nH]2)sc1CO (stereo not shown) [NBD-14110, N-(2-amino-1-(5-(hydroxymethyl)-4-methylthiazol-2-yl)ethyl)-5-(benzo[d][1,3]dioxol-5-yl)-1H-pyrrole-2-carboxamide]",IC50,[1],51.6 ± 4.4 µM
same,CC50 at 7 days,Cytotoxicity,62.8 ± 2.9 µM
same,IC50,[2],30.6 ± 2.7 µM
same,IC50,[3],1.9 ± 0.2 µM
same,IC50,[4],5.9 ± 0.4 µM
same,IC50,[5],2.1 ± 0.6 µM
same,IC50,[6],2.4 ± 0.2 µM
same,IC50,[7],1.5 ± 0.2 µM
same,IC50,[8],2.5 ± 0.1 µM
same,IC50,[9],3.2 ± 0.2 µM
same,IC50,[10],5 ± 0.3 µM
same,IC50,[11],8.2 ± 0.2 µM
same,IC50,[12],1.4 ± 0.3 µM
same,IC50,[13],2.4 ± 0.4 µM
same,IC50,[14],3.4 ± 0.3 µM
same,IC50,[15],2.8 ± 0.3 µM
same,IC50,[16],4.2 ± 0.4 µM
same,IC50,[17],1.6 ± 0.1 µM
same,IC50,[18],2 ± 0.1 µM
same,IC50,[19],1.8 ± 0.2 µM
same,IC50,[20],4.9 ± 0.1 µM
same,IC50,[21],1.7 ± 0.1 µM
same,IC50,[22],3.5 ± 0.1 µM
same,IC50,[23],4.4 ± 0.4 µM
same,IC50,[24],2.9 ± 0.3 µM
same,IC50,[25],2.4 ± 0.2 µM
same,IC50,[26],5.9 ± 0.4 µM
same,IC50,[27],4.8 ± 0.3 µM
same,IC50,[28],4.7 ± 0.2 µM
same,IC50,[29],4.9 ± 0.1 µM
same,IC50,[30],7.2 ± 0.1 µM
same,IC50,[31],7.1 ± 0.3 µM
same,IC50,[32],3.7 ± 0.6 µM
same,IC50,[33],3.4 ± 0.2 µM
same,IC50,"[34]; Human immunodeficiency virus 1, read-out: IC50 Mean ± SEM: Infant (B)",4.8e-06 ± 8e-07 M
same,IC50,"[34]; Human immunodeficiency virus 1, read-out: IC50 Mean ± SEM: Mother (M)",5.2e-06 ± 6e-07 M
same,IC50,"[34]; Human immunodeficiency virus 1, read-out: IC50 Mean ± SEM: Overall (n=10)",5e-06 ± 5e-07 M
